Drawing on patent US20160130259A1, “SUBSTITUTED BENZOFURAN COMPOUNDS AND METHODS OF USE THEREOF FOR THE TREATMENT OF VIRAL DISEASES” (priority 2013, published 2016), this text covers IC50 for nine compounds.

In one assay the test system is HCV replicon genotype 1a. The assay is described as follows: HCV replicon assay, genotype 1a (cell ELISA for NS3/4A). In kind it is cell-based. The following applies: Hepatitis C virus, 96 h, read-out: 1a IC50 (nM). Here is the method:
(§1) Measurement of inhibition by compounds was performed using the HCV replicon system. Several different replicons encoding different HCV genotypes or mutations were used. In addition, potency measurements were made using different formats of the replicon assay, including different ways of measurements and different plating formats. See Jan M. Vrolijk et al., A replicons-based bioassay for the measurement of interferons in patients with chronic hepatitis C, 110 J. Virological Methods 201 (2003); Steven S. Carroll et al., Inhibition of Hepatitis C Virus RNA Replication by 2′-Modified Nucleoside Analogs, 278(14) J. Biological Chemistry 11979 (2003). However, the underlying principles are common to all of these determinations, and are outlined below.
(§2) Stable neomycin phosphotransferase encoding replicons-harboring cell lines were used, so all cell lines were maintained under G418 selection prior to the assay. Potency was determined using a cell ELISA assay with an antibody to the replicons encoded NS3/4a protease. See Caterina Trozzi et al., In Vitro Selection and Characterization of Hepatitis C Virus Serine Protease Variants Resistant to an Active-Site Peptide Inhibitor, 77(6) J. Virol. 3669 (2003). To initiate an assay, replicon cells were plated in the presence of a dilution series of test compound in the absence of G418. Typically, the assays were performed in a 96-well plate formate for manual operation, or a 384-well plate format for automated assay. Replicon cells and compound were incubated for 96 hours. At the end of the assay, cells were washed free of media and compound, and the cells were then lysed. RNA was quantified indirectly through detection of replicon-encoded NS3/4A protein levels, through an ELISA-based assay with an antibody specific for NS3/4A. IC50 determinations were calculated as a percentage of a DMSO control by fitting the data to a four-parameter fit function and the data obtained is provided in the table below.
(§3) Data for selected compounds of the present invention was obtained for genotypes 1a and 1b using this method and is provided in the table below: […]

The next assay concerns HCV replicon genotype 1b. The assay is described as follows: HCV replicon assay, genotype 1b (cell ELISA for NS3/4A). In kind it is cell-based. The following applies: Hepatitis C virus, 96 h, read-out: 1b IC50 (nM). The method, then:
as §1, §2, §3
(In general: A replicon is a self-replicating genome or part of one, used to study replication in cells.)

For the compound `CNC(=O)c1c(-c2ccc(F)cc2)oc2cc(N(C)S(C)(=O)=O)c(-c3cc(-c4cc5c(F)cccc5[nH]4)nn(C)c3=O)cc12` [Compound 19, 5-(6-(4-fluoro-1H-indol-2-yl)-2-methyl-3-oxo-2,3-dihydropyridazin-4-yl)-2-(4-fluorophenyl)-N-methyl-6-(N-methylmethylsulfonamido)benzofuran-3-carboxamide], the values for the IC50 in the assay on HCV replicon genotype 1a and in the assay on HCV replicon genotype 1b were 2.48 nM and 3.07 nM, respectively.

As to `CNC(=O)c1c(-c2ccc(F)cc2)oc2cc(N(C)S(C)(=O)=O)c(-c3cn(C)c(=O)c(-c4cc5c(F)cccc5[nH]4)n3)cc12` [Compound 20, 5-(6-(4-fluoro-1H-indol-2-yl)-4-methyl-5-oxo-4,5-dihydropyrazin-2-yl)-2-(4-fluorophenyl)-N-methyl-6-(N-methylmethylsulfonamido)benzofuran-3-carboxamide], the concentration for half-maximal inhibition (IC50) with HCV replicon genotype 1a worked out at 2.9 nM; in the assay on HCV replicon genotype 1b, 5.91 nM.

Consider `CNC(=O)c1c(-c2ccc(F)cc2)oc2cc(N(C)S(C)(=O)=O)c(-c3cn(C)c(=O)c(-c4cc5c(F)cccc5n4C)n3)cc12` [Compound 21, 5-(6-(4-fluoro-1-methyl-1H-indol-2-yl)-4-methyl-5-oxo-4,5-dihydropyrazin-2-yl)-2-(4-fluorophenyl)-N-methyl-6-(N-methylmethylsulfonamido)benzofuran-3-carboxamide], for which the results for the IC50 in the assay with HCV replicon genotype 1a and with HCV replicon genotype 1b were 13.7 nM and 5.99 nM, respectively.

With `CNC(=O)c1c(-c2ccc(F)cc2)oc2ccc(-n3cc(C(=O)N[C@H](CO)c4ccc(F)cc4)ncc3=O)cc12` [Compound 22, (S)-N-(1-(4-fluorophenyl)-2-hydroxyethyl)-4-(2-(4-fluorophenyl)-3-(methylcarbamoyl)benzofuran-5-yl)-5-oxo-4,5-dihydropyrazine-2-carboxamide], the concentration for half-maximal inhibition (IC50) in the assay with HCV replicon genotype 1a came to 354 nM; with HCV replicon genotype 1b it was 193 nM.

As to `CNC(=O)c1c(-c2ccc(F)cc2)oc2ccc(-n3cc(C(=O)NCc4ccc(F)cn4)ncc3=O)cc12` [Compound 23, 4-(2-(4-fluorophenyl)-3-(methylcarbamoyl)benzofuran-5-yl)-N-((5-fluoropyridin-2-yl)methyl)-5-oxo-4,5-dihydropyrazine-2-carboxamide], the IC50 with HCV replicon genotype 1a came out at 492 nM; in the assay with HCV replicon genotype 1b, 213 nM.

For the compound `CNC(=O)c1c(-c2ccc(F)cc2)oc2ccc(-n3cc(C(=O)NC4(c5ccc(F)cc5)CC4)ncc3=O)cc12` [Compound 24, 4-(2-(4-fluorophenyl)-3-(methylcarbamoyl)benzofuran-5-yl)-N-(1-(4-fluorophenyl)cyclopropyl)-5-oxo-4,5-dihydropyrdzine-2-carboxamide], the IC50 came out at 80.8 nM in the assay with HCV replicon genotype 1a and 35.5 nM in the assay with HCV replicon genotype 1b.

With `CNC(=O)c1c(-c2ccc(F)cc2)oc2ccc(-n3cc(C(=O)NC4(c5ccc6cnccc6n5)CC4)ncc3=O)cc12` [Compound 25, N-(1-(1,6-naphthyridin-2-yl)cyclopropyl)-4-(2-(4-fluorophenyl)-3-(methylcarbamoyl)benzofuran-5-yl)-5-oxo-4,5-dihydropyrazine-2-carboxamide], the IC50 in the assay with HCV replicon genotype 1a was determined as 72.5 nM; with HCV replicon genotype 1b, 38.3 nM.

As to `CNC(=O)c1c(-c2ccc(F)cc2)oc2ccc(-n3cc(C(=O)NC4(c5ccccc5)CC4)ncc3=O)cc12` [Compound 26, 4-(2-(4-fluorophenyl)-3-(methylcarbamoyl)benzofuran-5-yl)-5-oxo-N-(1-phenylcyclopropyl)-4,5-dihydropyrazine-2-carboxamide], the IC50 was determined as 129 nM in the assay with HCV replicon genotype 1a and 29.7 nM with HCV replicon genotype 1b.

For the compound `CNC(=O)c1c(-c2ccc(F)cc2)oc2cc(N(C)S(C)(=O)=O)c(-c3cc(C(=O)N[C@H](C)c4ccc(F)cc4)c(=O)n(C)c3)cc12` [Compound 27, (R)-5-(2-(4-fluorophenyl)-3-(methylcarbamoyl)-6-(N-methylmethylsulfonamido)benzoturan-5-yl)-N-(1-(4-fluorophenyl)ethyl)-1-methyl-2-oxo-1,2-dihydropyridine-3-carboxamide], the IC50 in the assay on HCV replicon genotype 1a was determined as 6.87 nM; in the assay on HCV replicon genotype 1b, 4.47 nM.

For orientation: IC50 means the concentration needed to halve the response being measured.
